# Laboratory results reported in patent US7883888B2, “Peptides selectively lethal to malignant and transformed mammalian cells” (The Research Foundation —The State University of New York, priority 2000, dated 2011).
# What was measured:
# [1] = tested on: TUC-3 cells; test: TUC-3 transformed pancreatic cancer cells in culture treated with synthetic peptide; format: cell-based, rat; settings: for EFFECT: Table 3, leader is SEQ ID NO:4
# Source text: (§1) A line of rat pancreatic acinar cells (BMRPA.430) grown in culture was transformed with K-ras.
# [2] = tested on: human cancer cells, including homozygously p53 gene-deleted; test: toxicity of subject peptides to human cancer cells; format: cell-based
# Procedure: The following experiment was performed to compare effectiveness of subject peptides having the leader sequence attached to the amino terminal end.
# [3] = tested on: malignant or normal cells; test: control peptide with leader on malignant or normal cells; format: cell-based; settings: leader SEQ ID NO:4 at carboxy terminal end of control peptide
# Source text: When the leader sequence set forth in SEQ ID NO:4 was positioned at the carboxy terminal end of PNC29, a control protein having the following amino acid sequence: [sequence]
# [4] = tested on: pancreatic carcinoma cells BMRPA1. TUC-3; test: s.c. BMRPA1.TUC-3 xenotransplant in Nu/Nu mice, established tumors, osmotic pump delivery (Example II); format: in vivo
# Procedure: Nu/Nu mice (Harlan Laboratories, Indianapolis, Ind., n=10) and weighing 20-22 g, were xenotransplanted subcutaneously (s.c.) with live pancreatic carcinoma cells BMRPA1. TUC-3 (1×10^6 cells/mouse) in the left hind region.
# Each group was implanted s.c. with Alzet® osmotic pumps to deliver in a constant rate and over a defined period of 14 days a total volume of 0.095 ml volume of normal saline containing the respective peptide at a concentration of 20 mg/mouse. […] The pumps were filled according to the manufacturers guidelines and under sterile conditions The pumps were implanted s.c. on the left flank of the anaesthetized mice by creating a pocket underneath the mouse skin into which the tiny pumps were inserted. Each pocket was closed with a simple suture. From their inside chamber the pumps delivered continuously 0.25 μl/hr into each mouse. The mice were observed until they had recovered from the surgery when they were returned to the isolation ward of the animal facility. Since the animals were Nu/Nu mice and, thus, immuno-compromised they are highly susceptible when exposed to pathogens. Surgery and all preceding and post-surgical treatments were therefore performed in a sterile hood environment.
# [5] = tested on: BMRPA.430 cells; test: normal pancreatic acinar cells BMRPA.430 in culture treated with synthetic peptide; format: cell-based, rat; settings: 50 μg/ml; normal cell line
# Source text: as §1
# [6] = tested on: human breast carcinoma cell lines; test: human breast carcinoma cell lines treated with synthetic peptide; format: cell-based; settings: 100 μg/ml
# [7] = tested on: Melanoma cells; test: Melanoma cells treated with synthetic peptide; format: cell-based; settings: 100 μg/ml
# [8] = tested on: HeLa cells; test: HeLa cells treated with synthetic peptide; format: cell-based; settings: 100 μg/ml
# [9] = tested on: non-malignant and non-transformed human breast cell lines; test: non-malignant, non-transformed human breast cell lines treated with synthetic peptide; format: cell-based; settings: 100 μg/ml
# [10] = tested on: non-malignant and non-transformed fibroblast cell lines; test: non-malignant, non-transformed fibroblast cell lines treated with synthetic peptide; format: cell-based, human; settings: 100 μg/ml
# [11] = tested on: cultured cancer cells; test: cultured cancer cells treated with peptide without leader or with leader alone; format: cell-based; settings: 100 μg/ml
# Procedure: When cultured cancer cells were treated with a peptide with the primary structure of SEQ ID NO:1 without a leader sequence attached, at a dosage of 100 μg/ml, the cells were unaffected. Similarly, when cultured cancer cells were treated with leader sequence SEQ ID NO:4, the presently preferred leader sequence, at the same dosage, the cell were also unaffected.
substance,measurement,setting,value
PNC 21: p53 seq. 12-20 (PPLSQETFS) (SEQ ID NO: 2)-Leader; leader is KKWKMRRNQFWVKVQRG (SEQ ID NO:4) (PPLSQETFSKKWKMRRNQFWVKVQRG; amino acid residue 12-20 of human p53 protein; penetration leader sequence from antennapedia),EFFECT,[1],Cytotoxic
same,toxicity to a wide variety of human cancer cells,[2],strongly toxic
"PNC-29: control peptide of similar size, amino acid sequence MPFSTGKRIMLGE (SEQ ID NO: 25); in b48 with leader SEQ ID NO:4 at carboxy end (used as a control)",effect on malignant or normal cells,[3],no effect
same,effect on normal or tumor cells,"[4]; control peptide, s.c. pump, 20 mg/mouse",no effect
same,tumor diameter,[4]; over the 2-week treatment and follow-up period,10 to 16 mm
same,tumor growth,"[4]; s.c. pump over 14 days, 20 mg/mouse, tumors 3 to 6 mm at start",kept growing at a continuous rate
PNC 27: p53 seq. 12-26 (PPLSQETFSDLWKLL) (SEQ ID NO: 1)-Leader; leader is KKWKMRRNQFWVKVQRG (SEQ ID NO:4) (PPLSQETFSDLWKLLKKWKMRRNQFWVKVQRG; amino acid residue 12-26 of human p53 protein; penetration leader sequence from antennapedia),death of TUC-3 cells,[1]; 100 μg/ml,died within three to four days
same,EFFECT,[1],Cytotoxic
same,effect on BMRPA.430 cells,[5],not affected
same,cell death in human breast carcinoma cell lines,[6],cell death was observed
same,cell death in Melanoma cells,[7],cell death was observed
same,cell death in HeLa cells,[8],cell death was observed
same,effect on non-malignant and non-transformed human breast cell lines,[9],no effect
same,effect on non-malignant and non-transformed fibroblast cell lines,[10],no effect
same,toxicity to a wide variety of human cancer cells,[2],strongly toxic
SEQ ID NO:1 without a leader sequence attached: peptide PPLSQETFSDLWKLL (SEQ ID NO:1) without a leader sequence attached (amino acid residue 12-26 of human p53 protein),effect on cultured cancer cells,[11],unaffected
"SEQ ID NO:4: penetratin leader sequence from antennapedia protein alone, KKWKMRRNQFWVKVQRG (penetration leader sequence from antennapedia)",effect on cultured cancer cells,[11],unaffected
